Data from US4021553A, “5,6-Diaryl-1,2,4-triazines as topically-active anti-inflammatory agents” (Eli Lilly and Company, priority 1976, dated 1977).

Test system: erythemic response (ultraviolet-induced erythema)
Assay: UV-induced erythemic response inhibition in guinea pigs, topical (modification of the method of Winder)
Type: in vivo, Albino guinea pigs
Conditions: dose 100 mcg./12 cm.^2, in ethanol, weighted scores 1.0-2.5 hours
Method: A modification of the method of Winder was used to measure the anti-inflammatory activities of the compounds employed in the method of the present invention; see C. V. Winder, et al., Arch. Int. Pharmacodyn., 116, 261 (1958). Albino guinea pigs of either sex, weighing 225-300 grams, were shaved on the back and chemically depilated (Nair® Lotion Hair Remover, Carter Products, N.Y., N.Y.) 18-20 hours before exposure to ultraviolet light. The animals, in groups of four and bearing identifying ear tags, were treated by applying to an area of skin of about 12 cm.^2 a solution of test compound dissolved in 0.1 cc. of ethanol. The control treatment consisted of administering only the drug vehicle, ethanol, to a group of four animals. Groups of four animals each were given different treatment levels of test compound to obtain dose responses. Random order and blind administration of the test compounds were employed; drug idenfication was not made until after all animals were graded. Immediately prior to drug application, the animals were exposed in groups of four to a high-intensity ultraviolet light for a measured period of time (usually 4-7 seconds). The ultraviolet light source, a Hanovia Lamp (Kroymayer-Model 10), was placed in contact with the skin of the animal's back. A gummed notebook paper reinforcement was affixed to the lamp lens to provide an unexposed area of contrast for grading the erythema. Beginning one hour after exposure and thereafter at half-hour intervals for another 1 1/2 hours, the degree of resulting erythema was graded by an arbiturary scoring system based upon the degree of contrast and redness formed. […]
Total scores from each treatment group of four guinea pigs were prepared to the control treatment, and the percent inhibition was calculated as follows: [formula]
A dose-response graph was obtained by plotting dose versus percent inhibition, the points representing the average of each treatment group of four guinea pigs. […] The plotted or calculated ED50 for the particular compound tested, where available, is given in the last column of Table I.

Row | SMILES | % Inhibition compared with control (erythemic response)
1 | COc1ccc(-c2ncnnc2-c2ccc(OC)cc2)cc1 [H -- -- OCH3 OCH3, 5,6-bis(4-methoxyphenyl)-1,2,4-triazine] | 53%
2 | COc1ccc(-c2nnc(SCc3ccccc3)nc2-c2ccc(OC)cc2)cc1 [CH2 C6 H5 S 1 OCH3 OCH3, 3-benzylthio-5,6-bis(4-methoxyphenyl)-1,2,4-triazine] | 49%
3 | COc1ccc(-c2nnc(SC(C)C)nc2-c2ccc(OC)cc2)cc1 [CH(CH3)2 S 1 OCH3 OCH3, 3-isopropylthio-5,6-bis(4-methoxyphenyl)-1,2,4-triazine] | 35%
